Like-named read-outs stand apart in the source and are kept apart here.
Tests used:
Mdm2 RING domain = biological target: T1, Mdm2 RING domain (Homo sapiens, UniProt Q00987, DEL223-299); test: In vitro autoubiquitination of Mdm2 RING domain (RING-RING homo-dimers); assay type: biochemical; details: compound 10 μM, Western blot
T1 construct: made in house; host or cells: insect cells (recombinant baculovirus)
Experimental: In vitro ubiquitination assays were performed with Mdm2 (100 nM) and MdmX (200 nM) in the presence of nothing (C), DMSO (10 μM) or indicated compounds (10 μM), followed by WB of Mdm2 with anti-HA antibody. […] In vitro ubiquitination assays were performed with Mdm2-RING domain (100 nM) in the presence of nothing (C), DMSO (10 μM) or indicated compounds (10 μM), followed by WB of Mdm2 with anti-HA. […] FLAG-MdmX and HA-Mdm2-RING domain (HA-Mdm2R) were incubated in vitro in the presence of nothing (positive control), or DMSO (10 μM) or indicated compounds (10 μM), followed by pulldown with anti-FLAG-beads (M2) and WB of MdmX and Mdm2-RING domain with anti-FLAG and anti-HA antibodies respectively. The negative control (Neg) contains all components as in positive control sample except for missing of FLAG-MdmX.
To directly evaluate the ability of these compounds in inhibiting Mdm2-MdmX interaction, we performed in vitro pulldown experiments using recombinant FLAG-MdmX and HA-Mdm2RING proteins. After incubation of the two proteins in test tubes in the presence or absence of test compounds for 30 min at RT, FLAG-MdmX was pulled down with anti-FLAG beads followed by detection of MdmX-bound HA-Mdm2RING domain by Western blotting for HA-tag.
(§1) Materials and Methods. Plasmids, Protein Purification, and Chemical Reagents. FLAG-MdmX and HA-Mdm2 (human) constructs for insect cell expression and protein purification were described previously. HA-ubiquitin construct was generated by inserting HA-tag to the N-terminus of ubiquitin in pET28a vector. The mammalian expression plasmid pcDNA3.1-HdmX was a gift from Dr. Gokul Das (Roswell Park Cancer Institute).

Mdm2-MdmX E3 ligase = biological target: T2, Mdm2-MdmX E3 ligase (Homo sapiens, UniProt O15151); test: In vitro MdmX-stimulated Mdm2 autoubiquitination (Western blot); assay type: biochemical; details: compound 10 μM
T2 construct: FLAG; made in house; host or cells: insect cells (baculovirus)
T2 sequence (O15151 1-490): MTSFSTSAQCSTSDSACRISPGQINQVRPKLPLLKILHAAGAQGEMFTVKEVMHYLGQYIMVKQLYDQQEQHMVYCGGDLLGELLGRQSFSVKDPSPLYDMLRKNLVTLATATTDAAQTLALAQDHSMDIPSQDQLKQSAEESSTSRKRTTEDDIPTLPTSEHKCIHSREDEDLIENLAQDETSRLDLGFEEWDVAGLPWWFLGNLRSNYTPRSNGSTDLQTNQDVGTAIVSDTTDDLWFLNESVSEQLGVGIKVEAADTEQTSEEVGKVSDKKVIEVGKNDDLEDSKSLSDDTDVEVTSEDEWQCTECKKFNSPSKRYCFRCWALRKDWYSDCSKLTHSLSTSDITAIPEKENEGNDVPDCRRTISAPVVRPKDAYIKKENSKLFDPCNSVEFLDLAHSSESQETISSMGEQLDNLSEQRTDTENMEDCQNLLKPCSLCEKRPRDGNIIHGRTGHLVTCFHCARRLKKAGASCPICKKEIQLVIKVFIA
Excerpt: as §1
In vitro validation assays by Mdm2 autoubiquitination and p53 ubiquitination by Mdm2-MdmX and NEDD4-1 autoubiquitination. In order to test the compound specificity, we used two sets of ubiquitination reaction. One is MdmX stimulated Mdm2 autoubiquitination, the other is NEDD4-1 autoubiquitination. […] The former reaction includes 100 nM HA-tagged Mdm2 and 200 nM MdmX, and latter reaction includes 200 nM HA-tagged NEDD4-1. After adding compound to final concentration of 10 μM, the reaction was started by incubation at 30° C. in a water bath for one hour. Then the reaction was stopped by adding SDS sample buffer, followed by SDS-PAGE and Western blot analysis for HA or NEDD4-1. In vitro assays for p53 ubiquitination by Mdm2-MdmX were performed as described previously. Briefly, reactions were carried out as described above for Mdm2 autoubiquitination except for addition of 100 nM p53. Compounds or DMSO of final concentrations of 10 μM were added in the reaction before starting the reaction at 30° C. for 1 h followed by WB of p53 with DO-1 antibody.

Raji4RH cells = test: RRCL proliferation assay, drug-resistant lymphoma Raji4RH cells; assay type: cell-based; details: for IC50: 3-day treatment
NALM6 = test: Cell proliferation assay, NALM6 cells; assay type: cell-based; details: 72 h, read-out: IC50 of Compounds, NALM6
RL4RH cells = test: RRCL proliferation assay, drug-resistant lymphoma RL4RH cells; assay type: cell-based; details: for IC50: 3-day treatment
mouse bone marrow cells = details: for IC50: read-out: IC50, CFU-GM, mouse bone marrow cells, 7-day continuous treatment
Experimental: For the bone marrow toxicity assay, the following method was used. 400 μL of murine marrow mononuclear cells (2.0×10^5/mL) in IMDM containing 20% FBS, 10 units/mL recombinant murine GM-CSF, 10% of a 10× drug solution or control solution (DMSO), and 0.3% agarose were pipetted into microwells containing a 0.4-mL underlayer of IMDM and 0.3% agarose. The cultures were allowed to gel at 4° C. for 15 min and incubated at 37° C. in a fully humidified atmosphere of 5% CO2 in air for 7 days. CFU-GM colonies (aggregates of ≥40 cells) were counted with an inverted microscope using phase contrast. Percent survivals were calculated as 100× (the number of colonies in the drug-treated groups divided by the number of colonies in the vehicle control-treated group). IC50 values were determined.

NALM6-shp53 = test: Cell proliferation assay, NALM6-shp53 cells (p53 shRNA knockdown); assay type: cell-based
Experimental: Proliferation and apoptosis assays. Growth inhibition assays and apoptosis assays were carried out as described previously.

NALM6-shp53 cells = test: Apoptosis markers in NALM6-shp53 cells (Western blot); assay type: cell-based; details: NALM6-shp53 versus NALM6, 24 h
Excerpt: Actin was the loading control.

NALM6 cells = test: Flow cytometry of sub-G1 population in NALM6 cells (PI staining); assay type: cell-based
Excerpt: Sub-G1 fractions of each treatment were shown.
Proliferation and apoptosis assays.

[1] = tested on: p53 pathway in HCT8 cells; details: Western blot, time- and concentration-dependent
[2] = tested on: p53 pathway in NALM6 cells

T1 sequence (Q00987 with tags, fused parts or gaps isoform Q00987-2 DEL28-104): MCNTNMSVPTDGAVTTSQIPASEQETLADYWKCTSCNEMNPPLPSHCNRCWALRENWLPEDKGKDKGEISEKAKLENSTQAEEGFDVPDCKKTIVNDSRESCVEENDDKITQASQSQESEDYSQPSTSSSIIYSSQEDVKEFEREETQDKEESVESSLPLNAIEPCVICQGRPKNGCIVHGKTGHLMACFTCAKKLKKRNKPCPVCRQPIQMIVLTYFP

For Oc1c(C(Nc2ccccn2)c2cccc(Cl)c2Cl)ccc2cccnc12 (stereo not shown) [MMRi62], the “inhibition of autoubiquitination of Mdm2 RING domain (RING-RING homo-dimers)” value (from here on “inhibition … (RING-RING homo-dimers)”) (Mdm2 RING domain) was “do not inhibit” and the “inhibition of Mdm2 autoubiquitination stimulated by MdmX” value (“inhibition … by MdmX” below) (Mdm2-MdmX E3 ligase) was “inhibit”.
With COc1cc([C@@H]2c3cc4c(cc3[C@@H](O[C@@H]3O[C@@H]5CO[C@@H](C)O[C@H]5[C@H](O)[C@H]3O)[C@H]3COC(=O)[C@H]23)OCO4)cc(OC)c1O [Etoposide, etoposide] the IC50 (Raji4RH cells) was 1700 nM, the “TW BM/CC, Raji4RH” value (Raji4RH cells; therapeutic window, CFU-GM IC50 versus Raji4RH IC50) was −5x and the IC50 (NALM6; listed as marked (nM)) was 2.23 nM. The IC50 (RL4RH cells) was 6300 nM, the “TW BM/CC, RL4RH” value (RL4RH cells; therapeutic window, CFU-GM IC50 versus RL4RH IC50) was −19x and the “fold more toxic to normal mouse bone marrow cells” value (mouse bone marrow cells) was 5 fold. For the same compound, the “fold more toxic to normal mouse bone marrow cells relative to RRCLs” value (mouse bone marrow cells) was 5-20 fold, the IC50 (mouse bone marrow cells) was 320 nM and the IC50 (NALM6-shp53; 72 h, listed as marked (nM), read-out: IC50 of Compounds, NALM6-shp53) was 19.9 nM. For the same compound, the Fold change (NALM6-shp53; IC50 NALM6-shp53 versus NALM6, 72 h) was 9x.
With Cc1ccnc(NC(c2cccc(Cl)c2Cl)c2ccc3cccnc3c2O)c1 (stereo not shown) [MMRi64] the “effect of shRNA knockdown of p53 on apoptosis induction” value (NALM6-shp53 cells) was “did not affect apoptosis induction”, the IC50 (Raji4RH cells) was 180 nM and the IC50 (NALM6) was 145 nM. For the same compound, the IC50 (RL4RH cells) was 1000 nM, the IC50 (mouse bone marrow cells) was 1600 nM and the sub-G1 population (NALM6 cells; 0.2 μM, single treatment, combination experiment) was 0.73%. The sub-G1 population (NALM6 cells; 0.4 μM, single treatment, combination experiment) was 2.5%, the sub-G1 population (NALM6 cells; 0.5 μM, 48 h) was 7.3% and the sub-G1 population (NALM6 cells; 1 μM, 48 h) was 20%.
Oc1c(C(Nc2ccccn2)c2ccccc2Br)cc(Cl)c2cccnc12 (stereo not shown) [MMRi65] was tested, and the “inhibition … (RING-RING homo-dimers)” value (Mdm2 RING domain) was “do not inhibit” and the “inhibition … by MdmX” value (Mdm2-MdmX E3 ligase) was “inhibit”.
For Oc1c(C(Nc2ccccn2)c2cccc(Br)c2)cc(Cl)c2cccnc12 (stereo not shown) [MMRi63], the “inhibition … (RING-RING homo-dimers)” value (Mdm2 RING domain) was “do not inhibit” and the “inhibition … by MdmX” value (Mdm2-MdmX E3 ligase) was “inhibit”.
With COc1ccc(C2=N[C@@H](c3ccc(Cl)cc3)[C@@H](c3ccc(Cl)cc3)N2C(=O)N2CCNC(=O)C2)c(OC(C)C)c1 [Nutlin3a, reference compound] the IC50 (NALM6) was 1270 nM, the “effect on MdmX level in HCT8 cells” value [1] was “not obvious” and the sub-G1 population (NALM6 cells; 0.5 μM, 48 h) was 0.4%. It also gave a sub-G1 population (NALM6 cells; 1 μM, 48 h) of 0.8%, a sub-G1 population (NALM6 cells; 2 μM, 48 h) of 3.0% and a sub-G1 population (NALM6 cells; 2 μM, single treatment, combination experiment) of 1.3%. The “PUMA induction in NALM6 cells” value ([2]; 1 μM, time course) was “stronger p53 accumulation and PUMA induction than MMRi64”, the “p21 induction in NALM6 cells” value ([2]; 1 μM, time course to 24 h) was “strong induction of growth-arresting effector p21” and the “effect on Mdm2 expression in NALM6 cells” value ([2]; Western blot) was “strong induction of Mdm2 protein”. For the same compound, the “effect on MdmX levels in NALM6 cells” value ([2]; Western blot) was “slightly decreased MdmX levels”.
For Oc1c(C(Nc2ccccn2)c2ccc(Cl)c(Cl)c2)ccc2cccnc12 (stereo not shown) [MMRi61], the “inhibition … (RING-RING homo-dimers)” value (Mdm2 RING domain) was “do not inhibit” and the “inhibition … by MdmX” value (Mdm2-MdmX E3 ligase) was “inhibit”.
